Values quoted from earlier work, collected in paper PMC4512625, “Critical role of the SPAK protein kinase CCT domain in controlling blood pressure” (Human Molecular Genetics, 2015).

Legend:
[1] = system: NKCC1 in the hypothalamic paraventricular nucleus; details: intracranial administration, spontaneously hypertensive rats
From the text: The altered shape of the arterial pressure waveform in our […] mice (Fig. 5B) is consistent with increased vascular compliance and reduced wave reflection in the periphery as compared with the wild-type animals. This may be explained in part by a diminished cardiac output arising from possible reductions in cardiac contractility owing to loss of NKCC1 activity in the heart ([49]) (Fig. 2B) and the lower heart rates of the […] mice (Fig. 5A), because augmentation is negatively correlated with heart rate in humans ([50]). It has also been previously shown that […] ...

[2] = system: human OSR1 CCT domain, Leu473 to Ala; details: mutant versus wild type
From the text: Consistent with this, mutation of Leu473 to Ala reduced binding of OSR1 to RFXI WNK4 peptide over 100-fold ([40]).

| Compound | heart rate [1] | sympathetic vasomotor tone [1] | reduction of binding of OSR1 to RFXI WNK4 peptide by mutation of Leu473 to Ala [2] |
| --- | --- | --- | --- |
| CCCCNc1cc(C(=O)O)cc(S(N)(=O)=O)c1Oc1ccccc1 [bumetanide] | lower their heart rates | reduce sympathetic vasomotor tone |  |
| GRFQVT [RFXI WNK4 peptide, RFXI motif-containing peptide derived from WNK4, complexed to the human OSR1 CCT domain] |  |  | over 100 fold |
